Measurements: ChEMBL document CHEMBL5352382, “Synthesis and evaluation of imidazo[1,2-a]pyrazine derivatives as small molecule Gαq/11 inhibitors against uveal melanoma” (Eur J Med Chem, 2022)
The source made the active and inactive calls. The calls are words filed in the database; no cut-off is given here.

Legend:
921 [1] = test: Antiproliferative activity against human 921 cells assessed as reduction in cell viability at 10 uM measured after 72 hrs by CCK-8 method; format: functional, cell-based
[2] = biological target: T1, GNAQ/GNA11 (Homo sapiens) (UniProt P50148+P29992); test: Inhibition of Galphaq/11 (unknown origin) expressed in CHO-M1 cells at 10 uM preincubated for 1 hr followed by carbachol stimulation for 30 mins and measured after 1 hr by IP1 accumulation based HTRF assay relative to control; format: cell-based; details: time 150.0 min
[3] = Antiproliferative activity against human MP41 cells assessed as reduction in cell viability measured after 72 hrs by CCK-8 method; format: functional, cell-based; details: MP41, 72 h
A-375 = test: Antiproliferative activity against human A-375 cells assessed as reduction in cell viability at 10 uM measured after 72 hrs by CCK-8 method; format: functional, cell-based
MP41 [4] = test: Inhibition of colony formation in human MP41 cells assessed as inhibition of cell proliferation at 1 uM incubated for 14 days with replacement with fresh medium for every 3 days by crystal violet staining based analysis; format: functional; details: time 14.0 day
SK-MEL-2 = test: Antiproliferative activity against human SK-MEL-2 cells assessed as reduction in cell viability at 10 uM measured after 72 hrs by CCK-8 method; format: functional, cell-based
MP41 [5] = test: Inhibition of cell migration in human MP41 cells at 1 uM incubated for 24 hrs by wound healing assay; format: functional, cell-based
[6] = Antiproliferative activity against human 921 cells assessed as reduction in cell viability measured after 72 hrs by CCK-8 method; format: functional, cell-based; details: Homo sapiens, 921, 72 h
MP41 [7] = test: Antiproliferative activity against human MP41 cells assessed as reduction in cell viability at 10 uM measured after 72 hrs by CCK-8 method; format: functional, cell-based
BEAS-2B [8] = test: Cytotoxicity against human BEAS-2B cells assessed as reduction in cell viability at 10 uM measured after 72 hrs by CCK-8 method; format: toxicity, cell-based
[9] = Inhibition of Galphaq (unknown origin) preincubated for 1 hr followed by carbachol stimulation for 30 mins and measured after 1 hr by IP1 accumulation based HTRF assay; design: species or system Homo sapiens
HEK-293T [10] = test: Cytotoxicity against HEK293T cells assessed as reduction in cell viability at 10 uM measured after 72 hrs by CCK-8 method; format: toxicity, cell-based; details: human
[11] = biological target: T2, Type-1 angiotensin II receptor (Homo sapiens, UniProt P30556); test: (§1) Inhibition of human AT1R expressed in HEK293 cells using […] incubated for 1 hr followed by addition of angiotensinII and substrate by BRET assay; format: cell-based
T2 sequence (P30556 whole entry): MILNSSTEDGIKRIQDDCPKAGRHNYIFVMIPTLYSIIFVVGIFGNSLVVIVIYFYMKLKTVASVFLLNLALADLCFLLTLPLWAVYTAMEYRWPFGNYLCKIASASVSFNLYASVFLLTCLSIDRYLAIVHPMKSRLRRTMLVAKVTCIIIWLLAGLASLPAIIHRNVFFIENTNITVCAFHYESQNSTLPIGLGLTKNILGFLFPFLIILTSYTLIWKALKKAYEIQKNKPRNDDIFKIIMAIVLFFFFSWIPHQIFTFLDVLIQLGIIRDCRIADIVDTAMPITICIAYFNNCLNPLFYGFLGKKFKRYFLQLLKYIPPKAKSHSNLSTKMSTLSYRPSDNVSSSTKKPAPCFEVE

BEAS-2B [12] = test: Cytotoxicity against human BEAS-2B cells assessed as reduction in cell viability at upto 10 uM measured after 72 hrs by CCK-8 method; format: toxicity, cell-based
HEK-293T [13] = test: Cytotoxicity against HEK293T cells assessed as reduction in cell viability at upto 10 uM measured after 72 hrs by CCK-8 method; format: toxicity, cell-based; details: human
[14] = biological target: T1, GNAQ/GNA11 (Homo sapiens); test: Binding affinity to Galphaq/11 (unknown origin) assessed as increase in thermal stability at 10 uM incubated for 1 hr by CETSA; format: protein assay
MP41 [15] = test: Inhibition of cell invasion in human MP41 cells measured after 48 hrs by crystal violet staining based Boyden chamber invasion assay; format: functional; details: dose 3-10 µM
[16] = biological target: Transcriptional coactivator YAP1 (Homo sapiens) (UniProt P46937); test: Activation of YAP phosphorylation in human MP41 cells incubated for 4 hrs by Western blot analysis; format: cell-based; details: filed as activator, dose 3-20 µM
MP41 [17] = test: Antiproliferative activity against human MP41 cells assessed as reduction in cell viability at 1.25 uM measured after 72 hrs by CCK-8 method; format: functional, cell-based
921 [18] = test: Antiproliferative activity against human 921 cells assessed as reduction in cell viability at 1.25 uM measured after 72 hrs by CCK-8 method; format: functional, cell-based
[19] = biological target: Transcriptional coactivator YAP1 (Homo sapiens) (UniProt P46937); test: Activation of YAP phosphorylation in human MP41 cells incubated for 24 hrs by Western blot analysis; format: cell-based; details: filed as activator, dose 3-20 µM
MP41 [20] = test: Antiproliferative activity against human MP41 cells transfected with SiGNA11 assessed as reduction in cell viability measured after 72 hrs by CCK-8 method; format: functional, cell-based; details: dose <= 10.0 µM
[21] = biological target: T3, Mitogen-activated protein kinase; ERK1/ERK2 (Homo sapiens) (UniProt P27361+P28482); test: Inhibition of ERK1/2 phosphorylation in human MP41 cells at 20 uM by Western blot analysis; format: cell-based; details: time <= 24.0 hrs, TDE = time-dependent effect
[22] = biological target: T4, Type-1 angiotensin II receptor (Homo sapiens) (UniProt P30556); test: as §1; format: cell-based; details: dose 0.3-100 µM
T4 sequence (whole entry): T2 sequence (P30556 whole entry)

[23] = biological target: T3, Mitogen-activated protein kinase; ERK1/ERK2 (Homo sapiens); test: Inhibition of ERK1/2 phosphorylation in human MP41 cells incubated for 4 hrs by Western blot analysis; format: cell-based; details: dose 3-20 µM
[24] = biological target: Transcriptional coactivator YAP1 (Homo sapiens) (UniProt P46937); test: Activation of YAP phosphorylation in human MP41 cells at 20 uM by Western blot analysis; format: cell-based; details: filed as activator, time <= 24.0 hrs, TDE = time-dependent effect
MP41 [25] = test: Inhibition of colony formation in human MP41 cells assessed as inhibition of cell proliferation incubated for 14 days with replacement with fresh medium for every 3 days by crystal violet staining based analysis; format: functional; details: dose 1-5 µM, time 14.0 day
MP41 [26] = test: Inhibition of cell migration in human MP41 cells incubated for 24 hrs by wound healing assay; format: functional, cell-based; details: dose 3-10 µM
[27] = biological target: T3, Mitogen-activated protein kinase; ERK1/ERK2 (Homo sapiens); test: Inhibition of ERK1/2 phosphorylation in human MP41 cells incubated for 24 hrs by Western blot analysis; format: cell-based; details: dose 3-20 µM
[28] = Chemical stability of the compound assessed as compound remaining measured after 7 days by LC-MS analysis; format: physicochemical; details: time 7 day; read-out: Stability
[29] = Metabolic stability in human liver microsomes assessed as intrinsic clearance preincubated for 15 mins followed by NADPH addition and measured upto 45 mins by LC-MS/MS analysis; format: ADME, Microsome; details: time < 60 min, read-out: CLH
[30] = Aqueous solubility of the compound in deionized water at 25 degreeC by HPLC analysis; format: physicochemical
[31] = Metabolic stability in human liver microsomes assessed as half life preincubated for 15 mins followed by NADPH addition and measured upto 45 mins by LC-MS/MS analysis; format: ADME, Microsome; details: time < 60 min

T3 sequence (P27361 whole entry, looked up): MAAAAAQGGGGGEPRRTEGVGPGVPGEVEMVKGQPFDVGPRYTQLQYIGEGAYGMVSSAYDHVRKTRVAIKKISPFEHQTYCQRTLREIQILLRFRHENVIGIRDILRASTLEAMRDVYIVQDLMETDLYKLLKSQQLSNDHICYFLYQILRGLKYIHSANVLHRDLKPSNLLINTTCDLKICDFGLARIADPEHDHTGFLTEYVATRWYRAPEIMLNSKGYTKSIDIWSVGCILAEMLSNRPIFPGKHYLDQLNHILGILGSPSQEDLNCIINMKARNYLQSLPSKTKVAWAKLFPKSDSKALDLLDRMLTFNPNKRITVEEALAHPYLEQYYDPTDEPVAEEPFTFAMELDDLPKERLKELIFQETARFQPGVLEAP
T3 sequence (P28482 whole entry, looked up): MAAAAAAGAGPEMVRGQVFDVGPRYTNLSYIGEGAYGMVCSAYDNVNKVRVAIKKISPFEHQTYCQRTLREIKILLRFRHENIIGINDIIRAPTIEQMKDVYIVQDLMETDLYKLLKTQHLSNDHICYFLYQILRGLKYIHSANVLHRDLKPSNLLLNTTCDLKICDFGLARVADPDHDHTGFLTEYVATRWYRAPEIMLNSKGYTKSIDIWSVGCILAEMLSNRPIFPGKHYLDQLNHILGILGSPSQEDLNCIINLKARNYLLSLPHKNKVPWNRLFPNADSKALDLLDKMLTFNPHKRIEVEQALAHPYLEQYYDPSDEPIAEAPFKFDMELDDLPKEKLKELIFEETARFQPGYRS
Chain of Transcriptional coactivator YAP1 (Homo sapiens) (P46937 whole entry): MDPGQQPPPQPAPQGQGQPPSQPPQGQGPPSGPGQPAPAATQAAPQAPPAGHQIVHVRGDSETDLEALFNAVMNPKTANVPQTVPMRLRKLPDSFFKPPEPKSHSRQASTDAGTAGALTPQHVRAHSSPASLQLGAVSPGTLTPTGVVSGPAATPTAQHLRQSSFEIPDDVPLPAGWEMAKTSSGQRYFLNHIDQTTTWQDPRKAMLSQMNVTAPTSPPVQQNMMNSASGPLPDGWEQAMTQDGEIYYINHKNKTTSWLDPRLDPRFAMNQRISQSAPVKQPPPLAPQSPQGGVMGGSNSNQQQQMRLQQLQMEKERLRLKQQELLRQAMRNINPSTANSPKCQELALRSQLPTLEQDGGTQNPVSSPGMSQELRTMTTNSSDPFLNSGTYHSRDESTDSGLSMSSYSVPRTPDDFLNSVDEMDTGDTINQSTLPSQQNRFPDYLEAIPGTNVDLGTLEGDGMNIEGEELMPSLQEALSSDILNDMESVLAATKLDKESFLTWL

Row | Compound | inhibition [2] [%] | IC50 [3] [µM] | IC50 [6] [µM] | also measured
1 | N[C@@H](CSSC[C@H](N)C(=O)N1CCn2cc(-c3ccccc3)nc2[C@@H]1CC1CCCCC1)C(=O)N1CCn2cc(-c3ccccc3)nc2[C@@H]1CC1CCCCC1 | 10.9 | 10.2 | 14.3 | Activity 921 [1]: Active; Activity (A-375): Active; inhibition (MP41 [4]): Active; Activity (SK-MEL-2): Active; inhibition (MP41 [5]): Active; Activity (MP41 [7]): Active
2 | CC[C@H](C)[C@H](N)C(=O)N1CCn2cc(-c3ccc4c(c3)CCCC4)nc2[C@@H]1CC1CCCCC1 [listing 1 of 2 here] |  | 3.5 | 6.8 | Activity (BEAS-2B [8]): Non-Toxic; IC50 [9]: 23 µM; Activity (HEK-293T [10]): Non-Toxic; IC50 [11]: 8.9 µM
3 | CC(C)C[C@H](N)CN1CCn2cc(-c3ccc4c(c3)CCCC4)nc2[C@@H]1CC1CCCCC1 | 15.7 | 7.5 | 3.1 | Activity (BEAS-2B [12]): Toxic; Activity (HEK-293T [13]): Toxic
4 | CC[C@H](C)[C@H](N)C(=O)N1CCn2cc(-c3ccc4c(c3)CCCC4)nc2[C@@H]1CC1CCCCC1 [listing 2 of 2 here] | 18.3 |  |  | Activity [14]: Active; inhibition (MP41 [15]): Dose-Dependent Effect; Activity [16]: Dose-Dependent Effect; Activity (MP41 [17]): Active; Activity 921 [18]: Active; Activity [19]: Dose-Dependent Effect; Activity (MP41 [20]): Dose-Dependent Effect; inhibition [21]: Tde; inhibition [22]: Dose-Dependent Effect; inhibition [23]: Dose-Dependent Effect; Activity [24]: Tde; Activity (A-375): inactive; Activity (SK-MEL-2): inactive; inhibition (MP41 [25]): Dose-Dependent Effect; inhibition (MP41 [26]): Dose-Dependent Effect; inhibition [27]: Dose-Dependent Effect
5 | CC[C@H](C)[C@H](N)CN1CCn2cc(-c3ccc4c(c3)CCCC4)nc2[C@@H]1CC1CCCCC1 | 11.9 | 17.4 | 4.8 | 
6 | CC[C@H](C)[C@H](N)C(=O)N1CCn2cc(-c3ccc4c(c3)CCCC4)nc2[C@@H]1CC1CCCCC1.O=C(O)C(F)(F)F |  |  |  | remaining at 168 h [28]: 98.5%; CLint scaled [29]: 16.4 mL/min/kg; solubility [30]: 9190 µg/mL; half-life [31]: 1.77 h
7 | CC[C@H](C)[C@H](N)C(=O)N1CCn2cc(-c3ccc4c(c3)CCCC4)nc2[C@H]1C(C)C | 10.3 | 21.4 | 11.6 | 
8 | CN1CCC[C@H]1CN1CCn2cc(-c3ccc4c(c3)CCCC4)nc2[C@@H]1CC1CCCCC1 | 19 | 15.2 | 5 | 
9 | CC[C@H](C)[C@H](N)C(=O)N1CCn2cc(-c3cc(Cl)ccc3Cl)nc2[C@@H]1CC1CCCCC1 | 10.2 | 11 | 6.8 | 
10 | CC[C@H](C)[C@H](N)C(=O)N1CCn2cc(-c3cccc(F)c3F)nc2[C@@H]1CC1CCCCC1 | 16.3 | 25.9 | 3.2 | 
11 | CC[C@H](C)[C@H](N)C(=O)N1CCn2cc(-c3cccc(C(=O)O)c3)nc2[C@@H]1CC1CCCCC1 | 8.5 | > 40 | > 40 | 
12 | N[C@H](CN1CCn2cc(-c3ccc4c(c3)CCCC4)nc2[C@@H]1CC1CCCCC1)C1CCCCC1 | 12.2 | 5.9 | 4.1 | Activity (BEAS-2B [12]): Toxic; Activity (HEK-293T [13]): Toxic
13 | CN1CCN(CCN2CCn3cc(-c4ccc5c(c4)CCCC5)nc3[C@@H]2CC2CCCCC2)CC1 | 8.9 | 11 | 6.5 | 
14 | CC[C@H](C)[C@H](N)C(=O)N1CCn2cc(-c3cccc(C)c3)nc2[C@@H]1CC1CCCCC1 | 29.5 | 6.2 | 24.3 | 
15 | CC[C@H](C)[C@H](N)C(=O)N1CCn2cc(-c3ccc(C)cc3)nc2[C@@H]1CC1CCCCC1 | 31.9 | 10.9 | 9.7 | 
